Measured values: patent publication US7645802B2 (Biovail Laboratories International SRL., priority 2005, dated 2010)
Counter-ions that a name gives are not always drawn. Like-named read-outs stand apart in the source and are kept apart here. Marks after values point to notes of the source that are not given here.

Experiments:
[1] = Moisture content and pH of aqueous solutions of bupropion salts; assay type: physicochemical
[2] = cited from earlier work
[3] = tested on: chemically-induced seizures (induced by pentylenetetrazole) in mice; details: cited from earlier work
[4] = stability of polymorphic forms I, II, III by PXRD under ICH conditions; assay type: physicochemical; details: 40° C., 75% R.H. (b1144 also 25° C./60% RH), 3 months and 6 months, hydrobromide
Method: It is well known that organic molecules can crystallize into solid forms. Moreover the same organic compound may assume different crystalline arrangements in solid form, depending on the conditions under which the crystal product is formed. This phenomenon is commonly known as polymorphism. A study was undertaken to explore the polymorphic forms of bupropion hydrobromide. The crystal forms of the products obtained in this study were determined by powder X-ray diffraction (PXRD). A RIGAKU miniflex instrument (Radiation Cu Koc, generator 30 KV, filter Ni) was used to obtain the PXRD data.
The three polymorphic forms were subjected to stability testing. Samples of the polymorphic forms were subjected to ICH conditions (40° C., 75% R.H.) and PXRD data was obtained at 3 months and 6 months. […] Samples of the polymorphic forms II and III were tested after 1 month under the same accelerated stability conditions.
Samples of bupropion HBr form I were subjected to the conditions for the accelerated stability study as described in Example 10 and the shelf life stability study as described in Example 11.
10 g of bupropion HBr form I were dissolved in a mixture of 170 ml of acetone and 7 ml of water. The mixture was brought to reflux with dissolution of the solid. The solution was then cooled to room temperature. After one night the precipitate formed was filtered and dried at 40° C. under vacuum (30 mmHg) for 12 hours. 2.4 g of bupropion HBr form II were obtained. […] The crystalline form was checked after maintaining the product under these conditions for 1 month.
The mixture was brought to reflux obtaining complete dissolution of the solid. The solution was then cooled to room temperature without stirring and left in these conditions for 18 hours. The resulting crystalline solid was then filtered and dried under vacuum (30 mmHg) at 50° C. for 4 hours. 11.2 g of bupropion HBr form III were obtained. A sample of the product was prepared for stability testing by sealing the product in polyethylene bags, which in turn were placed in aluminium bags containing silica and sealed, and placed in the stability chamber in ICH conditions (40° C./75% R.H.). The crystalline form was checked after maintaining the product in these conditions for 1 month.

[5] = After re crystallization (R&D), tested after 1 day
[6] = Lower Alcohol Fatty Acid Ester Surfactants (Table 97)
[7] = Mono- and Diglyceride Surfactants (Table 89)

CC(NC(C)(C)C)C(=O)c1cccc(Cl)c1.O=C(O)CC(O)(CC(=O)O)C(=O)O (stereo not drawn) [Bup-Citrate (I)]
moisture content KF ([1]; Original (Initial APIs)): 0.23% | pH (aq. 0.5%) ([1]; Original (Initial APIs)): 3.89

Br.CC(NC(C)(C)C)C(=O)c1cccc(Cl)c1 (stereo not drawn) [Bup-HBr]
moisture content KF ([1]; Original (Initial APIs)): 0.00%

CC(NC(C)(C)C)C(=O)c1cccc(Cl)c1.Cl (stereo not drawn) [Bup-HCl]
moisture content KF ([1]; Original (Initial APIs)): 0.0% | pH (aq. 0.5%) ([1]; Original (Initial APIs)): 5.90

CC(NC(C)(C)C)C(=O)c1cccc(Cl)c1.O=C(O)/C=C\C(=O)O (stereo not drawn) [Bup-Maleate]
moisture content KF ([1]; Original (Initial APIs)): 0.10% | pH (aq. 0.5%) ([1]; Original (Initial APIs)): 4.29

CC(NC(C)(C)C)C(=O)c1cccc(Cl)c1.CC(NC(C)(C)C)C(=O)c1cccc(Cl)c1.O=C(O)C(O)C(O)C(=O)O (stereo not drawn) [Bup-Tartrate neutral]
moisture content KF ([1]; Original (Initial APIs)): 0.14% | pH (aq. 0.5%) ([1]; Original (Initial APIs)): 3.62

CC(NC(C)(C)C)C(=O)c1cccc(Cl)c1.Cc1ccc(S(=O)(=O)O)cc1 (stereo not drawn) [Bup-Tosylate]
moisture content KF ([1]; After re crystallization (R&D), tested after 2 Months): 0.18% | moisture content KF [1, 5]: 023% | pH (aq. 0.5%) [1, 5]: 5.88 | moisture content KF ([1]; Original (Initial APIs)): 1.71* % | pH (aq. 0.5%) ([1]; Original (Initial APIs)): 5.56

CCCCC/C=C\C/C=C\CCCCCCCC(=O)OCC [Ethyl linoleate]
HLB [2, 6]: <10

CCCCCCCC/C=C\CCCCCCCC(=O)OCC [Ethyl oleate]
HLB [2, 6]: <10

CCCCC/C=C\C/C=C\CCCCCCCC(=O)OCC(O)CO (stereo not drawn) [Glycerol monolinoleate]
HLB [2, 7]: 3-4

CCCCCCCCCCCCCCCC(=O)OCC(O)CO (stereo not drawn) [Glycerol monopalmitate]
HLB [2, 7]: 4

CCCCCCCCCCCCCCCCCC(=O)OCC(O)CO (stereo not drawn) [Glycerol monostearate]
HLB [2, 7]: 5-9

CC(=O)OCC(O)CO (stereo not drawn) [Glyceryl acetate]
HLB [2, 7]: <10

CCCCCCCC(=O)OCC(O)CO (stereo not drawn) [Glyceryl caprylate]
HLB [2, 7]: 5-6

CCCCCCCCCCCC(=O)OCC(O)CO (stereo not drawn) [Glyceryl laurate]
HLB [2, 7]: 4

CCCCCCCCCCCC(=O)OCC(O)CO (stereo not drawn) [Glyceryl monolaurate]
HLB [2, 7]: 6.8

CCCCCCCCCCCCCC(=O)OCC(O)CO (stereo not drawn) [Glyceryl monomyristate (C14)]
HLB [2, 7]: 3-4

CCCCCCCC/C=C\CCCCCCCC(=O)OCC(O)CO (stereo not drawn) [Glyceryl monooleate (C18:1)]
HLB [2, 7]: 3-4

CCCCCC[C@@H](O)C/C=C\CCCCCCCC(=O)OCC(O)CO (stereo partly drawn) [Glyceryl ricinoleate]
HLB [2, 7]: 6

CCCCC/C=C\C/C=C\CCCCCCCC(=O)OC(C)C [Isopropyl linoleate]
HLB [2, 6]: <10

CCCCCCCCCCCCCC(=O)OC(C)C [Isopropyl myristate]
HLB [2, 6]: <10

CCCCCCCCCC(=O)OCC(O)CO (stereo not drawn) [Monocaprin]
HLB [2, 7]: <10

CCCCCC(=O)OCC(O)CO (stereo not drawn) [Monocaproin (C6)]
HLB [2, 7]: <10

CCCCCCCC(=O)OCC(O)CO (stereo not drawn) [Monocaprylin]
HLB [2, 7]: <10

CCCCCCCC/C=C/CCCCCCCC(=O)OCC(O)CO (stereo not drawn) [Monoelaidin (C18:1)]
HLB [2, 7]: <10

CCCCCCCCCCCC(=O)OCC(O)CO (stereo not drawn) [Monolaurin]
HLB [2, 7]: <10

CCCCCCCCCCCCOS(=O)(=O)[O-].[Na+] [Sodium lauryl sulfate (dodecyl)]
HLB ([2]; Ionic Surfactants (Table 98)): 40

CCCCCCCC/C=C\CCCCCCCC(=O)[O-].[Na+] [Sodium oleate]
HLB ([2]; Ionic Surfactants (Table 98)): 18

CCCCCCCCCCCCCCCC(=O)OC[C@@H](O)[C@H]1OC[C@H](O)[C@H]1O [Sorbitan monopalmitate]
HLB ([2]; Sorbitan Fatty Acid Ester Surfactants (Table 96)): 6.7

Br [bromide]
ED50 / therapeutic dose level against pentylenetetrazole-induced seizures [3]: 910 mg/kg

CC(NC(C)(C)C)C(=O)c1cccc(Cl)c1 (stereo not drawn) [bupropion HBr form I, bupropion hydrobromide]
PXRD profile after storage (polymorph stability) [4]: gave the same results | PXRD profile after storage (polymorph stability) ([4]; listed as polymorphic form I): same PXRD profile
